The source of these data is ChEMBL document CHEMBL1130444, “Inhibitory effects of pentamidine analogues on spermine stimulated ligand binding to the NMDA receptor complex” (Bioorg Med Chem Lett, 1997).

Molecules are shown by their SMILES. Values joined by “and” are separate entries in the source; they are usually repeats but may differ in a detail not shown here. Identical values can stand only once.

Experiment [1] has as its target T1, Glutamate NMDA receptor (Rattus norvegicus) (UniProt P35439+Q00959+Q00960+Q00961+Q62645+Q8VHN2+Q9R1M7). Kind of experiment: Hill coefficient for binding to NMDA receptor. Format: protein-complex assay.
Experiment [2] deals with Glutamate NMDA receptor. Kind of experiment: Inhibition of [3H]MK-801 binding to the NMDA receptor of rat hippocampal membranes, measured in buffer containing 50 mM TRIS acetate, pH 7. Type of experiment: cell membranes, Membrane.
In experiment [3] the target is T1, Glutamate NMDA receptor (Rattus norvegicus). Kind of experiment: Hill coefficient for binding to NMDA receptor in TRIS acetate pH 7. Type of experiment: protein-complex assay.
Experiment [4] shares this target. Kind of experiment: Effect of spermine on the inhibition of [3H]MK-801 binding to the NMDA receptor TRIS acetate, pH 7. Type of experiment: protein-complex assay.
Experiment [5] shares this target. Kind of experiment: Effect of spermine on the inhibition of [3H]-MK-801 binding to the NMDA receptor TRIS acetate, pH 7. Format: protein-complex assay.
The target in experiment [6] is Glutamate NMDA receptor. Kind of experiment: Inhibition of [3H]MK-801 binding to the NMDA receptor of rat hippocampal membranes, measured in buffer containing 20 mM TRIS acetate, pH 7. Format: cell membranes, Membrane.
For experiment [7], the target named is T1, Glutamate NMDA receptor (Rattus norvegicus). In words: Effect of spermine on inhibition of [3H]MK-801 binding to NMDA receptor at 100 TRIS acetate, pH 7. Type of experiment: protein-complex assay.
The target in experiment [8] is Glutamate NMDA receptor. In words: Inhibition of [3H]MK-801 binding to NMDA receptor in 50 mM TRIS acetate pH 7. Format: protein-complex assay, Rattus norvegicus.
Experiment [9] addresses T1, Glutamate NMDA receptor (Rattus norvegicus). Kind of experiment: Effect of spermine on the inhibition of [3H]MK-801 binding to the NMDA receptor at 100 TRIS acetate, pH 7. Format: protein-complex assay.

Usually IC50 stands for the point on the concentration scale where inhibition reaches its midpoint. High values mean weaker potency, low ones greater potency. Regarding `C(=C\COc1ccc(C2=NCCN2)cc1)/COc1ccc(C2=NCCN2)cc1`, the nH in experiment [1] is 0.95 and 0.87; in experiment [3], 0.98 and 0.81. The IC50 was 38 µM and 37 µM in experiment [2]; 13.1 µM and 13.8 µM in experiment [6]. The Increase in IC50 in [4] was 15.3 and 12.7; in experiment [5] it was 4.14; in experiment [7], 4.88.

Regarding `COc1cc(C(=N)N)ccc1OC/C=C\COc1ccc(C(=N)N)cc1OC`, the nH in experiment [1] is 1.21 and 1.46; in experiment [3] it was 2.14 and 1. The IC50 is 95 µM in [2]; 73 µM in experiment [8]; 50 µM and 62 µM in [6]. Also, the Increase in IC50 in experiment [4] was 4.7 and 4.5; in [9], 1.72 and 2.87.

For the compound `COc1cc(C2=NCCN2)ccc1OC/C=C\COc1ccc(C2=NCCN2)cc1OC`, the nH was 1.13 and 1.29 in experiment [1]; 1.33 and 1.15 in experiment [3]. The half-inhibitory concentration (IC50) in experiment [2] was 32.6 µM and 49 µM; in experiment [6], 26.5 µM and 23.3 µM. Further, the Increase in IC50 was 7.8 and 8.6 in experiment [4]; 4.62 and 3.43 in experiment [5].

As to `N=C(N)c1ccc(OC[C@@H](O)[C@H](O)COc2ccc(C(=N)N)cc2)cc1`, the nH in [1] is 1.04 and 1.09; in experiment [3] it was 1.23 and 1.08. The IC50 in experiment [2] is 66 µM; in experiment [6], 24.8 µM and 22.6 µM. The Increase in IC50 in [4] is 28.4 and 22.4; in experiment [5] it was 9.3; in experiment [9], 8.1.

Regarding `COc1cc(C(=N)N)ccc1OC/C=C/COc1ccc(C(=N)N)cc1OC`, the nH in experiment [1] is 1.19; in experiment [3], 1.28 and 1.21. For the same compound, the IC50 is 31 µM and 26.4 µM in experiment [2]; 12 µM and 12.6 µM in [6]. The Increase in IC50 was 14.3 and 12.2 in experiment [4]; 2.87 and 4.15 in [9].

As to `N=C(N)c1ccc(OC/C=C\COc2ccc(C(=N)N)cc2)cc1`, the nH in experiment [1] is 1.39 and 1.38; in [3], 1.13. For the same compound, the IC50 in experiment [2] is 4.26 µM; in experiment [6] it was 1.8 µM and 1.48 µM. Moreover, the Increase in IC50 in experiment [4] is 29.1 and 38.2; in experiment [5], 11.9.

Turning to `C(=C/COc1ccc(C2=NCCN2)cc1)/COc1ccc(C2=NCCN2)cc1`, the nH amounted to 1.21 in experiment [1] and 0.99 in experiment [3]. For the same compound, the 50% inhibitory concentration (IC50) is 26.7 µM in experiment [2]; 18.8 µM and 15.9 µM in experiment [6]. The Increase in IC50 is 9.9 and 12.1 in experiment [4]; 5.48 in [5].

In the case of `COc1cc(C2=NCCN2)ccc1OC/C=C/COc1ccc(C2=NCCN2)cc1OC`, the nH in [1] is 1.04 and 0.96; in experiment [3], 1.09 and 1.16. The IC50 in experiment [2] was 63 µM; in experiment [8] it was 83 µM; in [6] it was 35 µM and 33 µM. The Increase in IC50 was 12.7 and 13.8 in [4]; 4.24 and 3.79 in [9].

As to `N=C(N)c1ccc(OCCCCCOc2ccc(C(=N)N)cc2)cc1` [PENTAMIDINE], the nH was 1.17 and 1.15 in experiment [1]; 0.93 in experiment [3]. Also, the IC50 in [2] is 3.06 µM; in [6], 1.31 µM and 1.74 µM. Further, the Increase in IC50 in [4] was 30.7 and 21.4; in experiment [5], 9.5.

As for `N=C(N)c1ccc(OC/C=C/COc2ccc(C(=N)N)cc2)cc1`, the nH is 0.98 and 0.88 in [1]; 0.71 in [3]. The half-inhibitory concentration (IC50) in experiment [2] was 3.81 µM; in experiment [6], 2.48 µM and 1.94 µM. In addition, the Increase in IC50 in experiment [4] was 21.7 and 27.8; in experiment [5] it was 9.5.

Turning to `N=C(N)c1ccc(OCCCCOc2ccc(C(=N)N)cc2)cc1`, the nH in experiment [1] is 1.11 and 1.36; in experiment [3], 0.99. In addition, the IC50 was 5.18 µM in experiment [2]; 2.64 µM and 3.01 µM in experiment [6]. Also, the Increase in IC50 in experiment [4] was 28.8 and 35; in experiment [5] it was 10.2.
